Measured values from patent US20240327412A1, “FACTOR XIIA INHIBITORS” (KALVISTA PHARMACEUTICALS LIMITED, priority 2021, published 2024).
pIC50: −log10 of the molar value.

The compounds below were run against T1, Human Factor XIIa (Homo sapiens, UniProt P00748) (assay: Determination of FXIIa inhibition (fluorogenic substrate H-DPro-Phe-Arg-AFC, IC50 assay)). Conditions: substrate at Km concentration, 25° C.; category scale; read-out: Human FXII IC50 (nm).
T1 construct: Proteolytic cleavage of FXII to heavy and light chains of FXIIa dramatically increases catalytic activity; purchased Enzyme Research Laboratories
T1 sequence (P00748 373-615 limits assumed): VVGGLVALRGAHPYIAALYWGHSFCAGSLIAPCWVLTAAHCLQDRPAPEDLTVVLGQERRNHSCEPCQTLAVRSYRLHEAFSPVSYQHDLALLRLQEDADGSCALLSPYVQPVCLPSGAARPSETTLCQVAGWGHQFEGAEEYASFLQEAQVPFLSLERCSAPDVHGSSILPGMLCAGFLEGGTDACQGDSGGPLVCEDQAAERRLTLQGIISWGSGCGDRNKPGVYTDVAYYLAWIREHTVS
T1 sequence (P00748 20-372 partner limits assumed): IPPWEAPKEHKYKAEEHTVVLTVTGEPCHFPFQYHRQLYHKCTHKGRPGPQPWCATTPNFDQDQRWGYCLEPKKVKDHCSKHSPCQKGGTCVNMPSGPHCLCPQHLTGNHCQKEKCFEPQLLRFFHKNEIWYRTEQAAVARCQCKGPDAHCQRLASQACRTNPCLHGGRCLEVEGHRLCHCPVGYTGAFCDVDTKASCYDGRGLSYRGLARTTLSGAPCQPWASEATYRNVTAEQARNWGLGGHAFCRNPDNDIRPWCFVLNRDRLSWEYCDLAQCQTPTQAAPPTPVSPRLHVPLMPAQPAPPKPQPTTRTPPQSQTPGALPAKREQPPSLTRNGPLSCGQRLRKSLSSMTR
Assay type: biochemical
Experimental: In vitro inhibition of Factor XIIa was determined using an IC50 assay based on standard literature methods (see e.g Baeriswyl et al., ACS Chem. Biol., 2015, 10 (8) 1861; Bouckaert et al., European Journal of Medicinal Chemistry 110 (2016) 181). Human Factor XIIa (Enzyme Research Laboratories) was incubated at 25° C. with the fluorogenic substrate H-DPro-Phe-Arg-AFC (Peptide Protein Science) and various concentrations of the test compound. Protease activity was measured by monitoring the accumulation of liberated fluorescence from the substrate over 5 min at 25° C. The linear rate of fluorescence increase per minute was expressed as percentage (%) activity. The Km for the cleavage of the substrate by FXIIa was determined by standard transformation of the Michaelis-Menten equation. The compound inhibitor assays were performed at substrate Km concentration. IC50 values were calculated as the concentration of inhibitor giving 50% inhibition (IC50) of the uninhibited enzyme activity (100%).
`Cn1ccc(OCC23CC(CNc4cccc5c(N)nccc45)(CN2C(=O)Nc2ccccc2)C3)cc1=O` [Example 13019, 4-(((1-aminoisoquinolin-5-yl)amino)methyl)-1-(((1-methyl-2-oxo-1,2-dihydropyridin-4-yl)oxy)methyl)-N-phenyl-2-azabicyclo[2.1.1]hexane-2-carboxamide] showed a pIC50 of 6.00 to 6.52.
In the case of `Cn1c(C(F)(F)F)cc(OCC23CCOC(CNc4cccc5c(N)nccc45)(C2)C3)cc1=O` [Example 10951, 4-((1-(((1-aminoisoquinolin-5-yl)amino)methyl)-2-oxabicyclo[3.1.1]heptan-5-yl)methoxy)-1-methyl-6-(trifluoromethyl)pyridin-2(1H)-one], the pIC50 was 6.00 to 6.52.
`Cn1ccc(OCC23CC(CNc4cccc5c(N)nccc45)(CN2C(=O)OC(C)(C)C)C3)cc1=O` [Example 13005, tert-butyl 4-(((1-aminoisoquinolin-5-yl)amino)methyl)-1-(((1-methyl-2-oxo-1,2-dihydropyridin-4-yl)oxy)methyl)-2-azabicyclo[2.1.1]hexane-2-carboxylate] was tested, and the pIC50 was 6.52 to 7.00.
In the case of `Cn1ccc(OCC23CC(CNc4cccc5c(N)nccc45)(CN2)C3)cc1=O` [Example 13007, 4-((4-(((1-aminoisoquinolin-5-yl)amino)methyl)-2-azabicyclo[2.1.1]hexan-1-yl)methoxy)-1-methylpyridin-2(1H)-one], the pIC50 was 6.52 to 7.00.
For `Nc1nccc2c(NCC34CC(COc5ccn6cnnc6c5)(C3)C4)cccc12` [Example 1135, N5-((3-(([1,2,4]triazolo[4,3-a]pyridin-7-yloxy)methyl)bicyclo[1.1.1]pentan-1-yl)methyl)isoquinoline-1,5-diamine], the pIC50 was 6.00 to 6.52.
In the case of `Cn1ccc(OCC23CN(C(=O)OC(C)(C)C)C(CNc4cccc5c(N)nccc45)(C2)C3)cc1=O` [Example 12027, tert-butyl 1-(((1-aminoisoquinolin-5-yl)amino)methyl)-4-(((1-methyl-2-oxo-1,2-dihydropyridin-4-yl)oxy)methyl)-2-azabicyclo[2.1.1]hexane-2-carboxylate], the pIC50 was 6.52 to 7.00.
`Cn1cc(Cl)c(OCC23CCOC(CNc4cccc5c(N)nccc45)(C2)C3)cc1=O` [Example 10933, 4-((1-(((1-aminoisoquinolin-5-yl)amino)methyl)-2-oxabicyclo[3.1.1]heptan-5-yl)methoxy)-5-chloro-1-methylpyridin-2(1H)-one] was tested, and the pIC50 was 5.52 to 6.00.
Work on `Cn1ccc(OCC23CN(C(=O)NCc4cccc(C(F)(F)F)c4)C(CNc4cccc5c(N)nccc45)(C2)C3)cc1=O` [Example 12069, 1-(((1-aminoisoquinolin-5-yl)amino)methyl)-4-(((1-methyl-2-oxo-1,2-dihydropyridin-4-yl)oxy)methyl)-N-(3-(trifluoromethyl)benzyl)-2-azabicyclo[2.1.1]hexane-2-carboxamide] yielded a pIC50 of 7.00 to 8.00.
For `Cn1ccc(OCC23CC(CNc4cccc5c(N)nccc45)(CN2C(=O)OCc2cccnc2)C3)cc1=O` [Example 13009, Pyridin-3-ylmethyl4-(((1-aminoisoquinolin-5-yl)amino)methyl)-1-(((1-methyl-2-oxo-1,2-dihydropyridin-4-yl)oxy)methyl)-2-azabicyclo[2.1.1]hexane-2-carboxylate], the pIC50 was 7.00 to 8.00.
`COc1ccncc1OCC12CCOC(CNc3cccc4c(N)nccc34)(C1)C2` [Example 10954, N5-((5-(((4-methoxypyridin-3-yl)oxy)methyl)-2-oxabicyclo[3.1.1]heptan-1-yl)methyl)isoquinoline-1,5-diamine] was tested, and the pIC50 was 5.00 to 5.52.
Work on `Cc1cnc2cc(OCC34CCOC(CNc5cccc6c(N)nccc56)(C3)C4)ccn12` [Example 10930, N5-((5-(((3-methylimidazo[1,2-a]pyridin-7-yl)oxy)methyl)-2-oxabicyclo[3.1.1]heptan-1-yl)methyl)isoquinoline-1,5-diamine] yielded a pIC50 of 7.00 to 8.00.
In the case of `CC(C)c1cc(OCC23COC(CNc4cccc5c(N)nccc45)(C2)C3)cn2ccnc12` [Example 6641, N5-((4-(((8-isopropylimidazo[1,2-a]pyridin-6-yl)oxy)methyl)-2-oxabicyclo[2.1.1]hexan-1-yl)methyl)isoquinoline-1,5-diamine], the pIC50 was 6.52 to 7.00.
With `Cn1ccc(OCC23CN(C(=O)OCc4ccccc4)C(CNc4ccnc5[nH]c(Cl)cc45)(C2)C3)cc1=O` [Example 12025, benzyl 1-(((2-chloro-1H-pyrrolo[2,3-b]pyridin-4-yl)amino)methyl)-4-(((1-methyl-2-oxo-1,2-dihydropyridin-4-yl)oxy)methyl)-2-azabicyclo[2.1.1]hexane-2-carboxylate] the pIC50 was 5.52 to 6.00.
With `Cn1ccc(OCC23CN(C(=O)c4ccccc4)C(CNc4cccc5c(N)nccc45)(C2)C3)cc1=O` [Example 12035, 4-((1-(((1-aminoisoquinolin-5-yl)amino)methyl)-2-benzoyl-2-azabicyclo[2.1.1]hexan-4-yl)methoxy)-1-methylpyridin-2(1H)-one] the pIC50 was 7.00 to 8.00.
`Cn1cc(OCC23CCOC(CNc4cccc5c(N)nccc45)(C2)C3)ccc1=O` [Example 10943, 5-((1-(((1-aminoisoquinolin-5-yl)amino)methyl)-2-oxabicyclo[3.1.1]heptan-5-yl)methoxy)-1-methylpyridin-2(1H)-one] showed a pIC50 of 5.52 to 6.00.
`Nc1nccc2c(NCC34CC(NC(=O)c5ccc6nnc(C(F)F)n6c5)(C3)C4)cccc12` [Example 1132, N-(3-(((1-aminoisoquinolin-5-yl)amino)methyl)bicyclo[1.1.1]pentan-1-yl)-3-(difluoromethyl)-[1,2,4]triazolo[4,3-a]pyridine-6-carboxamide] was tested, and the pIC50 was 4.40 to 5.00.
`Nc1nccc2c(NCC34CC(COc5ccon5)(CCO3)C4)cccc12` [Example 10936, N5-((5-((isoxazol-3-yloxy)methyl)-2-oxabicyclo[3.1.1]heptan-1-yl)methyl)isoquinoline-1,5-diamine] was tested, and the pIC50 was 5.00 to 5.52.
Compound `Cn1ccc(OCC23CC(CNc4cccc5c(N)nccc45)(CN2C(=O)CCc2ccccn2)C3)cc1=O` [Example 13016, 4-((4-(((1-aminoisoquinolin-5-yl)amino)methyl)-2-(3-(pyridin-2-yl)propanoyl)-2-azabicyclo[2.1.1]hexan-1-yl)methoxy)-1-methylpyridin-2(1H)-one] has a pIC50 of 6.00 to 6.52.
`Cn1ccc(OCC23CN(c4ccncc4)C(CNc4cccc5c(N)nccc45)(C2)C3)cc1=O` [Example 12065, 4-((1-(((1-aminoisoquinolin-5-yl)amino)methyl)-2-(pyridin-4-yl)-2-azabicyclo[2.1.1]hexan-4-yl)methoxy)-1-methylpyridin-2(1H)-one] was tested, and the pIC50 was 8.00 to 9.00.
`Nc1nccc2c(NCC34CC(COc5cccnc5)(CCO3)C4)cccc12` [Example 10968, N5-((5-((pyridin-3-yloxy)methyl)-2-oxabicyclo[3.1.1]heptan-1-yl)methyl)isoquinoline-1,5-diamine] showed a pIC50 of 5.00 to 5.52.
With `Cn1ccc(OCC23CN(c4nccc(-c5ccccc5)n4)C(CNc4cccc5c(N)nccc45)(C2)C3)cc1=O` [Example 12031, 4-((1-(((1-aminoisoquinolin-5-yl)amino)methyl)-2-(4-phenylpyrimidin-2-yl)-2-azabicyclo[2.1.1]hexan-4-yl)methoxy)-1-methylpyridin-2(1H)-one] the pIC50 was 6.52 to 7.00.
With `Cc1cc(OCC23CCOC(CNc4cccc5c(N)nccc45)(C2)C3)ncn1` [Example 10971, N5-((5-(((6-methylpyrimidin-4-yl)oxy)methyl)-2-oxabicyclo[3.1.1]heptan-1-yl)methyl)isoquinoline-1,5-diamine] the pIC50 was 6.00 to 6.52.
In the case of `Nc1nccc2c(NCC34CC(CN5CCCC5=O)(CO3)C4)cccc12` [Example 6649, 1-((1-(((1-aminoisoquinolin-5-yl)amino)methyl)-2-oxabicyclo[2.1.1]hexan-4-yl)methyl)pyrrolidin-2-one], the pIC50 was 4.40 to 5.00.
Work on `Cn1c(OCC23CCOC(CNc4cccc5c(N)nccc45)(C2)C3)cccc1=O` [Example 10945, 6-((1-(((1-aminoisoquinolin-5-yl)amino)methyl)-2-oxabicyclo[3.1.1]heptan-5-yl)methoxy)-1-methylpyridin-2(1H)-one] yielded a pIC50 of 5.00 to 5.52.
`Cn1ccc(OCC23CN(C(=O)CCc4cccc5ncccc45)C(CNc4cccc5c(N)nccc45)(C2)C3)cc1=O` [Example 12052, 4-((1-(((1-aminoisoquinolin-5-yl)amino)methyl)-2-(3-(quinolin-5-yl)propanoyl)-2-azabicyclo[2.1.1]hexan-4-yl)methoxy)-1-methylpyridin-2(1H)-one] gave a pIC50 of 7.00 to 8.00.
`Cc1cc(OCC23CC(CNc4cccc5c(N)nccc45)(C2)C3)cc(=O)n1C` [Example 1134, 4-((3-(((1-aminoisoquinolin-5-yl)amino)methyl)bicyclo[1.1.1]pentan-1-yl)methoxy)-1,6-dimethylpyridin-2(1H)-one] was tested, and the pIC50 was 6.52 to 7.00.
